# Data as given in ChEMBL document CHEMBL3407379, “Novel sesquiterpenes from Schisandra grandiflora: isolation, cytotoxic activity and synthesis of their triazole derivatives using "click" reaction” (Eur J Med Chem, 2015).
# pIC50: −log10 of the molar value.
# Legend:
# HeLa = assay: Cytotoxicity against human HeLa cells assessed as cell viability after 48 hrs by MTT assay; assay type: functional, cell-based
# A549 = assay: Cytotoxicity against human A549 cells assessed as cell viability after 48 hrs by MTT assay; assay type: functional, cell-based; conditions: A549, 48 h
# DU-145 = assay: Cytotoxicity against human DU145 cells assessed as cell viability after 48 hrs by MTT assay; assay type: functional, cell-based; conditions: DU-145, 48 h
# HEK293 = assay: Cytotoxicity against HEK293 cells assessed as cell viability after 48 hrs by MTT assay; assay type: cell-based; conditions: Homo sapiens, HEK293, 48 h
# MCF7 = assay: Cytotoxicity against human MCF7 cells assessed as cell viability after 48 hrs by MTT assay; assay type: functional, cell-based; conditions: MCF7, 48 h
# B16 = assay: Cytotoxicity against mouse B16 cells assessed as cell viability after 48 hrs by MTT assay; assay type: functional, cell-based; conditions: B16, 48 h
SMILES,pIC50 (HeLa),pIC50 (A549),pIC50 (DU-145),pIC50 (HEK293),pIC50 (MCF7),pIC50 (B16)
CC1(C)CCCC23C=C[C@](C)(CC[C@@]12C)OO3,3.91,4.02,3.94,3.32,3.89,3.47
C=C1CC[C@@H](C(C)C)[C@]12CC=C(C=O)CC2,3.57,3.77,3.78,3.26,3.68,3.37
C=C1CCC[C@]2(C)CCC(C=O)=CC[C@@]12C,3.72,3.84,3.82,3.13,3.50,3.64
CC1(C)CCCC2=CC=C(C=O)CC[C@]21C,3.79,3.86,3.72,3.16,3.78,3.84
CC1(C)CCC[C@]1(C)c1ccc(C=O)cc1,3.60,3.66,3.58,3.11,3.69,3.59
C#CC1=CC[C@@]2(C)C(=C)CCC[C@]2(C)CC1,3.80,3.83,3.41,3.28,3.24,3.30
C#CC1=CC[C@]2(CC1)C(=C)CC[C@H]2C(C)C,4.01,3.99,3.92,3.13,3.87,3.91
C=C1CCC[C@]2(C)CCC(c3cn(-c4ccc(OC)cc4)nn3)=CC[C@@]12C,4.36,4.46,4.23,3.39,3.93,3.68
C=C1CCC[C@]2(C)CCC(c3cn(-c4ccc(C(C)=O)cc4)nn3)=CC[C@@]12C,4.82,4.33,4.29,3.28,4.18,4.21
C=C1CCC[C@]2(C)CCC(c3cn(-c4cccc([N+](=O)[O-])c4)nn3)=CC[C@@]12C,4.50,4.61,4.20,3.16,4.39,4.50
C=C1CCC[C@]2(C)CCC(c3cn(-c4ccc(I)cc4)nn3)=CC[C@@]12C,3.84,3.86,3.84,3.67,3.79,3.84
C=C1CCC[C@]2(C)CCC(c3cn(-c4ccccc4C(C)=O)nn3)=CC[C@@]12C,4.25,4.42,4.31,3.28,4.52,4.37
C=C1CCC[C@]2(C)CCC(c3cn(CC(=O)Nc4ccc(C)cc4)nn3)=CC[C@@]12C,3.88,3.57,3.59,3.21,4.10,3.68
C=C1CCC[C@]2(C)CCC(c3cn(-c4cccc(OC)c4)nn3)=CC[C@@]12C,4.55,4.95,4.41,3.13,4.25,4.46
C=C1CCC[C@]2(C)CCC(c3cn(-c4ccc(Cl)cc4)nn3)=CC[C@@]12C,4.73,4.70,4.59,3.22,4.45,4.57
C=C1CCC[C@]2(C)CCC(c3cn(-c4ccc(C)cc4)nn3)=CC[C@@]12C,4.16,4.23,3.88,3.28,4.26,4.24
C=C1CCC[C@]2(C)CCC(c3cn(CC(=O)Nc4ccccc4)nn3)=CC[C@@]12C,4.20,4.14,3.83,3.31,3.83,3.83
C=C1CCC[C@]2(C)CCC(c3cn(-c4cc(OC)c(OC)cc4OC)nn3)=CC[C@@]12C,4.35,4.49,4.31,3.48,4.39,4.33
C=C1CC[C@@H](C(C)C)[C@]12CC=C(c1cn(CC(=O)Nc3ccc(C)cc3)nn1)CC2,4.27,4.50,4.35,3.52,3.85,3.71
C=C1CC[C@@H](C(C)C)[C@]12CC=C(c1cn(-c3cc(OC)c(OC)cc3OC)nn1)CC2,4.43,4.69,4.53,3.29,4.36,4.54
C=C1CC[C@@H](C(C)C)[C@]12CC=C(c1cn(-c3ccc(OC)cc3)nn1)CC2,4.26,4.36,4.19,3.41,4.20,3.97
COc1cccc2c1C(=O)c1c(O)c3c(c(O)c1C2=O)C[C@@](O)(C(=O)CO)C[C@@H]3O[C@H]1C[C@H](N)[C@H](O)[C@H](C)O1 [DOXORUBICIN],5.45,–,5.28,–,5.65,5.56
